# According to ChEMBL document CHEMBL3745645, “Synthesis, in vitro antitumor activity, dihydrofolate reductase inhibition, DNA intercalation and structure-activity relationship studies of 1,3,5-triazine analogues” (Bioorg Med Chem Lett, 2016):
# Activity calls are given as the source filed them. The calls are words filed in the database; no cut-off is given here.
# Columns and labels:
# SN12C = experiment: Cytotoxicity against human SN12C cells at 10 uM after 48 hrs by SRB assay; assay type: functional
# MCF7 = experiment: Cytotoxicity against human MCF7 cells at 10 uM after 48 hrs by SRB assay; assay type: functional; conditions: MCF7, 48 h, read-out: GI
# [1] = Cytotoxicity against human Hs 578T cells at 10 uM after 48 hrs by SRB assay; assay type: functional; conditions: read-out: GI
# T47D = experiment: Cytotoxicity against human T47D cells at 10 uM after 48 hrs by SRB assay; assay type: functional
# MDA-MB-468 = experiment: Cytotoxicity against human MDA-MB-468 cells at 10 uM after 48 hrs by SRB assay; assay type: functional
# CCRF-CEM [2] = experiment: Cytotoxicity against human CCRF-CEM cells after 48 hrs by SRB assay; assay type: functional; conditions: for GI50 / TGI: pooled result: one value given for 6 cell lines, strains, targets or settings
# [3] = Cytotoxicity against human HL-60(TB) cells after 48 hrs by SRB assay; assay type: functional; conditions: HL-60, 48 h, read-out: LC50 (the source's name)
# K562 = experiment: Cytotoxicity against human K562 cells after 48 hrs by SRB assay; assay type: functional; conditions: K562, 48 h
# [4] = Cytotoxicity against human RPMI8226 cells after 48 hrs by SRB assay; assay type: functional; conditions: RPMI-8226, 48 h, read-out: LC50 (the source's name)
# SR [5] = experiment: Cytotoxicity against human SR cells after 48 hrs by SRB assay; assay type: functional
# [6] = Cytotoxicity against human COLO205 cells after 48 hrs by SRB assay; assay type: functional; conditions: COLO 205, 48 h, pooled result: one value given for 7 cell lines, strains, targets or settings
# [7] = Cytotoxicity against human SF268 cells after 48 hrs by SRB assay; assay type: functional; conditions: SF-268, 48 h, pooled result: one value given for 6 cell lines, strains, targets or settings
# [8] = Cytotoxicity against human LOXIMVI cells after 48 hrs by SRB assay; assay type: functional; conditions: LOX IMVI, pooled result: one value given for 9 cell lines, strains, targets or settings
# [9] = Cytotoxicity against human IGROV1 cells after 48 hrs by SRB assay; assay type: functional; conditions: IGROV-1, 48 h, pooled result: one value given for 7 cell lines, strains, targets or settings
# 786-0 = experiment: Cytotoxicity against human 786-0 cells after 48 hrs by SRB assay; assay type: functional; conditions: 786-0, 48 h, pooled result: one value given for 8 cell lines, strains, targets or settings
# [10] = Cytotoxicity against human PC3 cells after 48 hrs by SRB assay; assay type: functional; conditions: PC-3, 48 h; for GI50 / TGI: pooled result: one value given for 2 cell lines, strains, targets or settings
# Calf thymus DNA [11] = experiment: Binding affinity to calf thymus DNA by UV-vis spectrometric analysis; assay type: nucleic-acid assay; conditions: Bos taurus
# Calf thymus DNA [12] = experiment: Binding affinity to calf thymus DNA by fluorescence spectrophotometric analysis; assay type: nucleic-acid assay; conditions: Bos taurus
# Calf thymus DNA [13] = experiment: Binding affinity to calf thymus DNA assessed as melting temperature by spectrophotometric analysis (reference value: 60 degC); assay type: nucleic-acid assay; conditions: Bos taurus
# CCRF-CEM [14] = experiment: Cytotoxicity against human CCRF-CEM cells at 10 uM after 48 hrs by SRB assay; assay type: functional
# SR [15] = experiment: Cytotoxicity against human SR cells at 10 uM after 48 hrs by SRB assay; assay type: functional
# NCI-H226 = experiment: Cytotoxicity against human NCI-H226 cells at 10 uM after 48 hrs by SRB assay; assay type: functional
# NCI-H322M = experiment: Cytotoxicity against human NCI-H322M cells at 10 uM after 48 hrs by SRB assay; assay type: functional; conditions: read-out: GI
# NCI-H522 = experiment: Cytotoxicity against human NCI-H522 cells at 10 uM after 48 hrs by SRB assay; assay type: functional
# U-251 = experiment: Cytotoxicity against human U251 cells at 10 uM after 48 hrs by SRB assay; assay type: functional
# Malme-3M = experiment: Cytotoxicity against human MALME-3M cells at 10 uM after 48 hrs by SRB assay; assay type: functional
# SK-MEL-5 = experiment: Cytotoxicity against human SK-MEL-5 cells at 10 uM after 48 hrs by SRB assay; assay type: functional
# A498 = experiment: Cytotoxicity against human A498 cells at 10 uM after 48 hrs by SRB assay; assay type: functional
# ACHN = experiment: Cytotoxicity against human ACHN cells at 10 uM after 48 hrs by SRB assay; assay type: functional; conditions: read-out: GI
# [16] = Cytotoxicity against human Caki1 cells at 10 uM after 48 hrs by SRB assay; assay type: functional; conditions: CAKI-1, 48 h, read-out: GI
# [17] = Cytotoxicity against human RXF393 cells at 10 uM after 48 hrs by SRB assay; assay type: functional; conditions: RXF 393, 48 h, read-out: GI
# [18] = Cytotoxicity against human MOLT4 cells at 10 uM after 48 hrs by SRB assay; assay type: functional; conditions: MOLT-4, 48 h, read-out: GI
# [19] = Cytotoxicity against human HOP62 cells at 10 uM after 48 hrs by SRB assay; assay type: functional; conditions: HOP-62, 48 h, read-out: GI
# [20] = Cytotoxicity against human COLO205 cells at 10 uM after 48 hrs by SRB assay; assay type: functional; conditions: COLO 205, 48 h, read-out: GI
# [21] = Cytotoxicity against human HCT116 cells at 10 uM after 48 hrs by SRB assay; assay type: functional; conditions: HCT-116, 48 h, read-out: GI
# [22] = Cytotoxicity against human SW620 cells at 10 uM after 48 hrs by SRB assay; assay type: functional; conditions: SW-620, 48 h, read-out: GI
# [23] = Cytotoxicity against human SF268 cells at 10 uM after 48 hrs by SRB assay; assay type: functional; conditions: SF-268, 48 h, read-out: GI
# [24] = Cytotoxicity against human SF539 cells at 10 uM after 48 hrs by SRB assay; assay type: functional; conditions: SF-539, 48 h, read-out: GI
# [25] = Cytotoxicity against human OVCAR3 cells at 10 uM after 48 hrs by SRB assay; assay type: functional; conditions: OVCAR-3, 48 h, read-out: GI
# [26] = Cytotoxicity against human OVCAR5 cells at 10 uM after 48 hrs by SRB assay; assay type: functional; conditions: OVCAR-5, 48 h, read-out: GI
# [27] = Cytotoxicity against human OVCAR8 cells at 10 uM after 48 hrs by SRB assay; assay type: functional; conditions: OVCAR-8, 48 h, read-out: GI
structure (smiles),measurement,setting,value
Cc1nc2cc(Nc3nc(Nc4ccc(F)cc4)nc(N4CCCC4)n3)ccc2n1Cc1ccccc1,growth inhibition (GI),SN12C,Active
same,inhibition of growth at 10 µM,MCF7,97%
same,inhibition of growth at 10 µM,[1],69.4%
same,growth inhibition (GI),T47D,Active
same,growth inhibition (GI),MDA-MB-468,Active
same,LC50,CCRF-CEM [2],> 100 µM
same,GI50,CCRF-CEM [2],2540 nM
same,TGI,CCRF-CEM [2],5.28 µM
same,CC50,[3],> 100 µM
same,LC50,K562,> 100 µM
same,CC50,[4],> 100 µM
same,LC50 (concentration killing 50% of cells),SR [5],> 100 µM
same,GI50,[6],1.81 µM
same,LC50,[6],6.93 µM
same,TGI,[6],3.54 µM
same,GI50,[7],2.08 µM
same,LC50 (concentration killing 50% of cells),[7],8.64 µM
same,TGI,[7],17.6 µM
same,GI50,[8],1.81 µM
same,LC50,[8],13.7 µM
same,TGI,[8],3.68 µM
same,GI50,[9],1.9 µM
same,LC50 (concentration killing 50% of cells),[9],11 µM
same,TGI,[9],4.01 µM
same,GI50,786-0,1.75 µM
same,LC50 (concentration killing 50% of cells),786-0,1260 nM
same,TGI,786-0,3.56 µM
same,LC50,[10],6 µM
same,GI50,[10],1.82 µM
same,TGI,[10],3.82 µM
same,Ka,Calf thymus DNA [11],5.23 ×10⁴ /M
same,Ka,Calf thymus DNA [12],5.46 ×10⁴ /M
same,Tm,Calf thymus DNA [13],71.5 °C
same,growth inhibition (GI),CCRF-CEM [14],Active
same,growth inhibition (GI),SR [15],Active
same,growth inhibition (GI),NCI-H226,Active
same,inhibition of growth at 10 µM,NCI-H322M,78.6%
same,growth inhibition (GI),NCI-H522,Active
same,growth inhibition (GI),U-251,Active
same,growth inhibition (GI),Malme-3M,Active
same,growth inhibition (GI),SK-MEL-5,Active
same,growth inhibition (GI),A498,Active
same,inhibition of growth at 10 µM,ACHN,88.5%
Cc1nc2cc(Nc3nc(Nc4ccc(F)cc4)nc(-c4ccc(Cl)cc4)n3)ccc2n1Cc1ccccc1,inhibition of growth at 10 µM,[16],9.6%
same,inhibition of growth at 10 µM,[17],31.5%
same,inhibition of growth at 10 µM,SN12C; read-out: GI,22.9%
same,inhibition of growth at 10 µM,MCF7,57.6%
same,inhibition of growth at 10 µM,[1],24.6%
same,inhibition of growth at 10 µM,T47D; read-out: GI,69.3%
same,inhibition of growth at 10 µM,"MDA-MB-468; MDA-MB-468, 48 h, read-out: GI",25.7%
same,LC50,CCRF-CEM [2],> 100 µM
same,GI50,CCRF-CEM [2],3390 nM
same,TGI,CCRF-CEM [2],9.55 µM
same,CC50,[3],> 100 µM
same,LC50,K562,> 100 µM
same,CC50,[4],> 100 µM
same,LC50 (concentration killing 50% of cells),SR [5],> 100 µM
same,GI50,[6],4.97 µM
same,LC50,[6],> 100 µM
same,TGI,[6],59.8 µM
same,GI50,[7],8.44 µM
same,LC50 (concentration killing 50% of cells),[7],61.4 µM
same,TGI,[7],48.6 µM
same,GI50,[8],6.36 µM
same,LC50,[8],80.6 µM
same,TGI,[8],31.7 µM
same,GI50,[9],6.1 µM
same,LC50 (concentration killing 50% of cells),[9],65.4 µM
same,TGI,[9],24.4 µM
same,GI50,786-0,11.5 µM
same,LC50 (concentration killing 50% of cells),786-0,> 100000 nM
same,TGI,786-0,45.4 µM
same,LC50,[10],> 100 µM
same,GI50,[10],13.5 µM
same,TGI,[10],> 100 µM
same,Ka,Calf thymus DNA [11],3.39 ×10⁴ /M
same,Ka,Calf thymus DNA [12],1.97 ×10⁴ /M
same,inhibition of growth at 10 µM,CCRF-CEM [14]; read-out: GI,96.1%
same,inhibition of growth at 10 µM,[18],99.2%
same,growth inhibition (GI),SR [15],Active
same,inhibition of growth at 10 µM,[19],19.4%
same,inhibition of growth at 10 µM,"NCI-H226; NCI-H226, 48 h, read-out: GI",13.5%
same,inhibition of growth at 10 µM,NCI-H322M,5.98%
same,inhibition of growth at 10 µM,"NCI-H522; NCI-H522, 48 h, read-out: GI",17.2%
same,inhibition of growth at 10 µM,[20],38.2%
same,inhibition of growth at 10 µM,[21],49.7%
same,inhibition of growth at 10 µM,[22],31.9%
same,inhibition of growth at 10 µM,[23],45.1%
same,inhibition of growth at 10 µM,[24],7.42%
same,inhibition of growth at 10 µM,"U-251; U-251, 48 h, read-out: GI",30.3%
same,inhibition of growth at 10 µM,Malme-3M; read-out: GI,27.5%
same,inhibition of growth at 10 µM,"SK-MEL-5; SK-MEL-5, 48 h, read-out: GI",16.6%
same,inhibition of growth at 10 µM,[25],42.7%
same,inhibition of growth at 10 µM,[26],7.71%
same,inhibition of growth at 10 µM,[27],37.2%
same,inhibition of growth at 10 µM,"A498; A498, 48 h, read-out: GI",29.7%
same,inhibition of growth at 10 µM,ACHN,28.4%
